Test results as given in patent US9345742B2, “Aminostatin derivatives for the treatment of arthrosis” (MERCK PATENT GMBH, priority 2011, dated 2016).
Numbered stars: 1 amine (or outer) side, 2 acyl side, 3 side chain; on linkers, the order of the positions; unused ones are H or OH. Square brackets hold non-standard residues; d marks the D form. Peptide text beside a SMILES is read from it. * marks the point of attachment. X1 = N[C@@H](CC(=O)[*:2])[C@H](Cc1ccccc1)N[*:1]; Isovaleryl = CC(C)CC(=O)*; Abu = CC[C@H](N)C(=O)O; Boc = CC(C)(C)OC(=O)*

Tests used:
recombinant human renin = recombinant human renin (Homo sapiens (Human), UniProt P00797); test: In-vitro fluorescence assay for identification of renin-inhibitory activity; assay type: biochemical; conditions: recombinant human renin 10 nM, pH 7.2; read-out: Renin selectivity IC50
Chain of recombinant human renin (P00797 67-406): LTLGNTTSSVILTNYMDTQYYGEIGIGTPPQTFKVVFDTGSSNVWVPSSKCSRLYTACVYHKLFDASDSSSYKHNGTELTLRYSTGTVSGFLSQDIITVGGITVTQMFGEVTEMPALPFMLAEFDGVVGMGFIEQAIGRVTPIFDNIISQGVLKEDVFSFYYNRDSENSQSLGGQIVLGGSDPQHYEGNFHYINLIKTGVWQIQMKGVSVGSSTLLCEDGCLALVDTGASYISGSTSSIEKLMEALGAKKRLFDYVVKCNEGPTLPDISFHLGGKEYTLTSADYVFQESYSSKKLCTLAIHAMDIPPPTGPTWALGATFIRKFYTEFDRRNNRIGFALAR
Method: In order to identify modulators of renin activity, a continuous enzymatic test was carried out with a synthetic peptide which carries a fluorescent group Edans (=(5-(aminoethyl)aminonaphthalenesulfonate) which is quenched by energy transfer from a Dabcyl (4′-dimethylaminoazobenzene-4-carboxylate) group on the same molecule, in Greiner 384-well microtitre plates. Cleavage of the peptidic substrate by renin causes an increase in the fluorescence intensity. In order to determine the efficacy of substances, the time-dependent increase in the fluorescence intensity in the presence of the substance was compared with the time-dependent increase in fluorescence in the absence of substances. The reference substance used was renin inhibitor 2 (Z-Arg-Arg-Pro-Phe-His-Sta-Ile-His N-Boc-Lys methyl ester Z) (Sigma-Aldrich). The substrate used was renin FRET substrate I (DABCYL-g-Abu-[…]EDANS) (Anaspec, Fremont Calif.). The enzyme employed was recombinant human renin (Proteos, Kalamazoo, Mich.) in a final concentration of 10 nM. The test was carried out in 50 mM Mops buffer, 1.5% (v/v) of DMSO, 0.1% (w/v) of Igepal®, pH 7.2, 0.5% (w/v) of BSA. 2 μl of each substance solution with serially diluted substance concentration were added to in each case 4 μl of renin solution and incubated at room temperature for 15 min. The reaction was started by addition of 4 μl of substrate solution (final concentration 5 μM). After carrying out a starting-point fluorescence measurement (excitation wavelength 340 nm/emission wavelength 495 nm) using an Envision multilabel reader (Perkin Elmer), the reaction was incubated at 37° C. for 60 min. The amount of peptide fragment cleaved off during the reaction time was subsequently measured by determination of the increase in the fluorescence intensity at 495 nm (excitation wavelength 340 nm).

bovine explants = test: Cartilage explant assay (pH-induced cartilage degradation, GAG liberation); assay type: cell-based; conditions: Bos taurus, 72 h, pH 5.5, 3 days
Excerpt: In order to investigate the effect of potential cathepsin D inhibitors on cartilage degradation, a pH-induced model based on bovine explants is used. The pH of the medium in which the explants are cultivated is matched here to the pathophysiological pH of an arthrotic knee. This pH is pH 5.5. In this ex vivo model, potential cathepsin D inhibitors are subsequently investigated for their action with respect to stopping of the cartilage degradation process. If the cartilage is destroyed, glycosaminoglycans (GAGs) are released into the cell culture supernatant. The amount of GAGs liberated can be determined quantitatively with the aid of DMMB (dimethylmethylene blue hydrochloride). If sulfated GAGs are detected using dimethylmethylene blue hydrochloride, the decrease in the absorption at 633 nm is utilised. […] In order to determine the concentration, a calibration line is also recorded using chondroitin sulfate.
The bovine explants are firstly prepared. The induction of the cartilage degradation is carried out in 96-multiwell plates. One explant is cultivated per well. In each case, 200 μl of DMEM (incubation medium pH 5.5) without FBS+30 μg/ml of ascorbic acid are added. Thus negative control, explants (n=4) are incubated at pH 7.4 (without FBS). This control is not included in the calculation of the data, but instead ensures that the pH change has the desired effect on the liberation of GAG. At this point, the substances to be tested are added. No preincubation of the explants is carried out. The explants are cultivated with the corresponding substances for 3 days in the incubator at 37° C. and 7.5% CO2.
In order to investigate the effect of cathepsin D inhibitors on the liberation of GAG (glycosaminoglycan), the substances are employed in the desired concentration and cultivated for 3 days. The compounds to be tested are tested in a first experiment in a concentration of 1 μM and 1% of DMSO. Substances which have an effect of >50% on the liberation of GAG (this corresponds to <50% of the control in the Assay Explorer) are tested in the next experiment at 100 nM and 1% of DMSO. Substances which have an effect of >50% on the liberation of GAG under these conditions (this corresponds to <50% of the control in the Assay Explorer) are tested in a concentration/effect relationship. The compounds here are investigated in the following concentrations: 30 μM, 10 μM, 3 μM, 1 μM, […], 0.1 μM, 0.03 μM, 0.01 μM.
The positive control used is pepstatin A with a concentration of 0.01 μM. The assay window is defined by the control (pH 5.5), defined as 0% effect, and the control pH 5.5+0.01 μM pepstatin A, defined as 100% effect. After incubation for 3 days, the cell culture supernatants are collected and stored at −20° C. or measured directly. The amount of liberated GAG is measured photometrically.
The effect (1 value) of the respective substance in % based on the positive control (pH 5.5+0.01 μM pepstatin A) and the negative control (pH 5.5) is reported for concentrations of 1 μM and 100 nM. The value represents the average of 4 replicants. In the determination of a concentration/effect relationship, an IC50 value is reported to the database (Assay Explorer).
The cell culture supernatants (200 μl) are either measured directly or stored at −20° C. In order to ensure an accurate determination of the concentration (μg/ml of GAG in the supernatant) of GAG, the measurement values must be located in the linear region of the standard curve. In order to ensure this, various dilutions are routinely introduced (1/5, 1/10, 1/20, 1/40). The dilutions are prepared with medium and introduced automatically (Hamilton) into a 384-well plate (15 μl). 60 μl of DMMB solution are likewise added automatically (or using a multichannel pipette). A rapid colour reaction occurs, which is subsequently measured at 633 nm using a plate reader (for example Envision).

[1] = biological target: cathepsin D isolated from the human liver (Homo sapiens (Human), UniProt P07339); test: In-vitro fluorescence assay for identification of cathepsin D inhibitors; assay type: biochemical; conditions: cathepsin D 1.4 nM, pH 5.5; read-out: CatD assay IC50-
Chain of cathepsin D isolated from the human liver (P07339 65-161): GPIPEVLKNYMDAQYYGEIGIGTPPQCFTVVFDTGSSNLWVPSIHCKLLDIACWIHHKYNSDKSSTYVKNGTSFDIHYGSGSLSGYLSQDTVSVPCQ
Chain of cathepsin D isolated from the human liver (P07339 169-412): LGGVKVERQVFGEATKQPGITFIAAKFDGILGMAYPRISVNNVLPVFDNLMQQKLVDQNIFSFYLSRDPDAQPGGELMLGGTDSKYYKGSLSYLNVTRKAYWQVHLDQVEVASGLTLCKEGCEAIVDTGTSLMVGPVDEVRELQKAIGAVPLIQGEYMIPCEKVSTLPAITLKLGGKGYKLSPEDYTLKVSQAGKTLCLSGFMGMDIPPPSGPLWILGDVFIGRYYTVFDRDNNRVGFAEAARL
Method: In order to identify modulators of cathepsin D activity, a continuous enzymatic test was carried out with a synthetic peptide which carries a fluorescent group (MCA=(7-methoxycoumarin-4-yl)acetyl) which is quenched by energy transfer from a Dpn (2,4 dinitrophenyl) group on the same molecule, in Greiner 384-well nb microtitre plates. Cleavage of the peptidic substrate by cathepsin D causes an increase in the fluorescence intensity. In order to determine the efficacy of substances, the time-dependent increase in the fluorescence intensity in the presence of the substance was compared with the time-dependent increase in fluorescence in the absence of substances. The reference substance used was pepstatin A (Sigma-Aldrich). The substrate used was […](Dnp)d-R—NH2 (Enzo Life Sciences, Lörrach). The enzyme employed was cathepsin D isolated from the human liver (Sigma-Aldrich) in a final concentration of 1.4 nM. The test was carried out in 100 mM sodium acetate buffer, 1.25% (v/v) of DMSO, 0.25% (w/v) of Chaps, pH 5.5. 2 μl of each substance solution with serially diluted substance concentration were added to in each case 4 μl of cathepsin D solution and incubated at room temperature for 10 min. The reaction was started by addition of 2 μl of substrate solution (final concentration 5 μM). After carrying out a starting-point fluorescence measurement (excitation wavelength 340 nm/emission wavelength 450 nm) using an Envision multilabel reader (Perkin Elmer), the reaction was incubated at room temperature for 60 min. The amount of peptide fragment cleaved off during the reaction time was subsequently measured by determination of the increase in the fluorescence intensity at 450 nm (excitation wavelength 340 nm).

Row | IC50 (recombinant human renin) [nM] | IC50 [1] [nM] | Structure (SMILES) | IC50 (bovine explants) [nM]
1 | > 30000 | 1800 | CC[C@H](NC(=O)[C@H](CC(C)C)NC(=O)CC(C)C)C(=O)N[C@@H](Cc1ccccc1)[C@@H](N)CC(=O)NCCc1ccc2c(c1)OCO2 [Compound 5, N-(2-Benzo-1,3-dioxol-5-ylethyl)-(3S,4S)-3-amino-4-{(S)-2-[(S)-4-methyl-2-(3-methyl-butyrylamino)pentanoylamino]butyryl-amino}-5-phenylpentanamide] | 7.73
2 | > 30000 | 28 | CC[C@H](C)[C@H](NC(=O)C[C@H](N)[C@H](Cc1ccccc1)NC(=O)[C@@H](NC(=O)Cc1cccc(OC(F)(F)F)c1)C(C)C)C(=O)NCCC(C)C [Compound 36, N-[(1S,2S)-2-Methyl-1-(3-methylbutyl-carbamoyl)butyl]-(S)-3-(S)-amino-4-{(S)-3-methyl-2-[2-(3-trifluoromethoxyphenyl)-acetylamino]butyrylamino}-5-phenyl-penlanamide] | 13.8
3 | > 30000 | 160 | CC[C@H](C)[C@H](NC(=O)C[C@H](N)[C@H](Cc1ccccc1)NC(=O)[C@@H](NC(=O)[C@H](CC(C)C)NC(=O)CC(C)C)C(C)C)C(=O)N[C@@H](CC(C)C)C(=O)OC [Compound 14, Methyl (S)-2-[(2S,3S)-2-((S)-3-(S)-amino-4-{(S)-3-methyl-2-[(S)-4-methyl-2-(3-methyl-butyrylamino)pentanoylamino]butyryl-amino}-5-phenylpentanoylamino)-3-methylpentanoylamino]-4-methylpentanoate] (Isovaleryl-LV[X1]IL-OMe) | 
4 | > 30000 | 3.2 | CC[C@H](C)[C@H](NC(=O)C[C@H](N)[C@H](Cc1ccccc1)NC(=O)[C@@H](NC(=O)Cc1cccc(OC(F)(F)F)c1)[C@@H](C)CC)C(=O)N[C@H](C(=O)O)C(C)C [Compound 37, (S)-2-[(2S,3S)-2-((3S,4S)-3-Amino-4-{(1S,4S)-3-methyl-2-[2-(3-trifluoromethoxy-phenyl)acetylamino]pentanoylamino}-5-phenylpentanoylamino)-3-methylpentanoylamino]-3-methylbutyric acid] | 8.2

Further lines, the compound ahead of its results:

Row | Structure (SMILES) | IC50 (recombinant human renin) [nM] | IC50 [1] [nM] | IC50 (bovine explants) [nM]
5 | CC[C@H](C)[C@H](NC(=O)C[C@H](N)[C@H](Cc1ccccc1)NC(=O)[C@@H](NC(=O)[C@H](CC(C)C)NC(=O)CC(C)C)C(C)C)C(=O)Nc1cccnc1 [Compound 25, N-[(1S,2S)-2-Methyl-1-(pyridin-3-yl-carbamoyl)butyl]-(S)-3-amino-4-{(S)-(S)-3-methyl-2-[(S)-4-methyl-2-(3-methylbutyryl-amino)pentanoylamino]butyrylamino}-5-phenylpentanamide] | > 30000 | 520 | 27.5
6 | CC[C@H](NC(=O)[C@H](CC(C)C)NC(=O)OC(C)(C)C)C(=O)N[C@@H](Cc1ccccc1)[C@@H](N)CC(=O)N[C@H](C(=O)N[C@H](C(=O)OC)C(C)C)[C@@H](C)CC [Compound 1, Methyl (S)-2-((2S,3S)-2-{(3S,4S)-3-amino-4-[(S)-2-((S)-2-tert-butoxycarbonylamino-4-methylpentanoylamino)butyrylamino]-5-phenylpentanoylamino}-3-methylpentanoylamino)-3-methylbutyrate] (Boc-L[Abu][X1]IV-OMe) |  | 40 | 3.13
7 | CC[C@H](C)[C@H](NC(=O)C[C@H](N)[C@H](Cc1ccccc1)NC(=O)[C@@H](NC(=O)CCc1ccccc1)C(C)C)C(=O)N[C@H](C(=O)OC)C(C)C [Compound 17, Methyl (S)-2-((2S,3S)-2-{(3S,4S)-3-amino-4-[(S)-3-methyl-2-(3-phenylpropionylamino)butyrylamino]-5-phenylpentanoylamino}-3-methylpentanoylamino)-3-methyl-butyrate] |  |  | 55.2
